The subject of data set [1] is HepaRG cells. Description: Neutral red uptake (NRU) cytotoxicity assay. The data set is classed as cell-based, human. Conditions: 72 h, tested concentration range. As for the experimental part: Wild-type human hepatoma HepaRG cells obtained from Biopredic International (Saint Grégoire, France) were cultivated for 4 weeks in a Binder cell culture incubator maintained at 37 °C in a 5% humidified atmosphere with 5% CO2 before they were employed in this study. The 4 weeks consisted of 2 weeks of proliferation and 2 weeks of differentiation. […]
Cytotoxicity assays were performed in 96-well plates at a density of 9000 cells per well, and test compounds were incubated for 72 h. […] After the 30-min incubation with WST-1, absorbance was measured at 450 nm corrected by a reference at 620 nm (λexc = 450 nm/λemi = 620 nm) using an Infinite M200 PRO plate reader (Tecan; Männedorf, Switzerland). […] The absorbed dye was quantified by fluorescence measurement (λexc = 530 nm/λemi = 645 nm) on an Infinite M200 PRO plate reader (Tecan; Männedorf, Switzerland). Background corrected viability values of both assays were expressed as a percentage of untreated cells. […] Means and standard deviations for each treatment were calculated. […]

Data set [2] concerns HepaRG cells. As to the kind of experiment: AdipoRed triglyceride accumulation assay. The data set is classed as cell-based, human. The conditions noted are these: for Relative triglyceride accumulation: related to medium control. As for the experimental part:
Different elements of the liver steatosis AOP were evaluated in this study. Transcriptomics was employed as a tool to investigate the expression of liver steatosis-related genes that occur either as MIE (genes related to NR activation) or molecular and cellular KEs. In addition to gene expression, lipid accumulation in HepaRG cells was conducted to cover molecular KEs. Considering that upstream MIEs occur earlier than subsequent downstream KEs (Alarcan et al. [2021]), we applied different time points (24 h for transcriptomics and 72 h for lipid accumulation) to reflect the temporal relationships between biological events.
HepaRG cells were treated in 96-well plates for 72 h with eight different concentrations of the above-mentioned test compounds, with the highest concentration of each being the highest non-cytotoxic concentration. The synthetic LXR and FXR agonist, T0901317, was used as a positive control at a concentration of 10 µM. After the 72-h incubation, cells were washed with 200 µL phosphate-buffered saline (PBS), and then 200 µL PBS containing 5 µg/mL Hoechst 33,342 (Thermo Fisher Scientific; Waltham, Massachusetts, USA) was added to each well. Thereafter, 5 µL of the AdipoRed reagent was added to each well, and the plates were incubated at 37 °C for 10 min. Subsequently, the fluorescence of AdipoRed was measured at λexc = 485 nm/λemi = 572 nm, and Hoechst 33,342 was measured at λexc = 350 nm/λemi = 451 nm on the Infinite M200 PRO plate reader (Tecan; Männedorf, Switzerland). AdipoRed signals were normalized to Hoechst 33,342 signals to compensate for variations in cell number. Relative triglyceride levels were referred to untreated cells. Each concentration was measured in three technical replicates. Three independent biological replicates were performed (n = 3) and means as well as SD were calculated.
A linear mixed-effects ANOVA (α = 0.05) described by Pinheiro and Bates ([2000]) followed by a post-hoc Dunnett test for multiple comparisons of treatment groups versus the control was used for statistical analysis of data from cytotoxicity assay, AdipoRed assay, CYP450 inhibition assay as well as mixture effects. R studio (ver. 4.4.1) was used to determine the effective concentration at relative triglyceride induction fold of 1.5 for each test compound.

Take `C#CCOc1ccc(CCNC(=O)C(OCC#C)c2ccc(Cl)cc2)cc1OC` (stereo not shown) [MDP, mandipropamid]: the cytotoxicity result in the data set on HepaRG cells [1] is given as “not cytotoxic in the tested concentration range”. Further, the Relative triglyceride accumulation is on record as 1.2 with HepaRG cells [2] (5.00 mg/L, 72 h); 1.1 with HepaRG cells [2] (6.00 mg/L, 72 h); 1.3 with HepaRG cells [2] (8.00 mg/L, 72 h); 1.3 in the data set on HepaRG cells [2] (10.0 mg/L, 72 h); 1.2 in the data set with HepaRG cells [2] (12.0 mg/L, 72 h); 1.6 in the data set with HepaRG cells [2] (15.0 mg/L, 72 h). In the data set on HepaRG cells [2] (19.0 mg/L, 72 h), this molecule gave a Relative triglyceride accumulation of 1.8. The “EC1.5-fold (effective concentration at 1.5 relative triglyceride induction fold)” value in the data set on HepaRG cells [2] (HepaRG cells, 72-h incubation) turned out to be 14.4 mg/L. Moreover, in the data set with HepaRG cells [2] (HepaRG cells, 72 h), the EC1.5-fold entry is “≈ 35 µM”.

(Values after publication PMC12367838, “Relevance of kinetic interactions and co-formulants for plant protection product liver toxicity in vitro” (Archives of Toxicology, 2025).)
